The values below come from patent publication US10501443B2, “Pyridone compound as c-met inhibitor” (FUJIAN COSUNTER PHARMACEUTICAL CO., LTD., priority 2016, dated 2019).

Molecules are shown by their SMILES.

One data set addresses T1, c-MET enzyme (Homo sapiens, UniProt P08581).
T1 construct: His (6xHis); purchased invitrogen PV3143
The data set can be described thus: Binding activity of c-MET enzyme assay (LanthaScreen Eu Kinase Binding Assay). The conditions noted are these: cMET 5 nM, Tracer 236 30 nM, 60 mins at 4° C. As to the method:
Assay 1: Binding Activity of c-MET Enzyme Assay
(§1) Reagents and Consumables:
Eu-Anti-His AB (MAb Anti 6HIS-K)
The binding of tracer agent and antibody and kinase leaded to high FRET standard, while using kinase inhibitor instead of tracer agent would lead to loss of FRET.
1) The antibody Eu-Anti-His AB, enzyme cMET, tracer agent Tracer236 were diluted.
Double duplicate wells were set and each of them 75 nL.

In a further data set the test system is MHCC97H cells. The data set can be described thus: Inhibitory effect assay on proliferation (CellTiter-Glo). As to conditions: Homo sapiens, 72 h, MHCC97-H, 3 days incubation, read-out: MHCC97H cell IC50. The data set is classed as cell-based.
Text: Assay 2: Inhibitory Effect Assay on Proliferation
as §1
1) Cell culture: DMEM cell medium, fetal bovine serum, DPBS
3) Detection reagent: live cell detection kit CellTiter-Glo
4) Other major consumables and reagents: compound dilution plate, intermediate plate, test plate, DMSO
The amount of ATP directly reflects the number of cells and the state of the cells, thus the number of living cells could be directly detected by quantitatively measuring ATP. The live cell assay kit contains luciferase and its substrate. With the presence of ATP, a stable optical signal would be emitted by the luciferase catalyzed substrate. Thus the amount of ATP in the cell could be determined by detecting the intensity of the signal. The light signal was proportional to the amount of ATP in the cell, while the ATP was positively correlated with the number of living cells, so that the proliferation in the cell could be detected. The assay plate used was analyzed by Envision from PE Corporation.
1. Preparation of the Cell Plates
MHCC97-H cells were seeded separately into 384-well plates, each of the well contains 500 cells. The cell plates were placed and incubated in a carbon dioxide incubator overnight.
2. Preparation of the compound.
Echo was used for 4-time dilution and 9 concentration was prepared, ready for double duplicate wells assay.
3. Compound Treatment of Cells
The compounds were transferred to cell plates at a starting concentration of 10 μM. The cell plates were incubated in a carbon dioxide incubator for 3 days.
The […] reagent was added into the cell plates and the plate was incubated at room temperature for 10 mins to stabilize the luminescence signal. PerkinElmer Envision multi-label analyzer was used for readings.
On the technique in general: In ATP-based viability assays light output follows the ATP content of the culture.

Data set [1] concerns human liver cancer MHCC97H cell xenograft. The data set can be described thus: Pharmacodynamics assay of MHCC97H liver cancer cell subcutaneous xenograft tumor model. Format: in vivo, BALB/c nude mice. The conditions noted are these: for Tumor volume (24th day): 24th day after administration, average ± SEM; for T/C / TGI: based on 24th day tumor volume. As to the method: Assay 3: Pharmacodynamics Assay of MHCC97H Liver Cancer Cell Subcutaneous Xanograft Tumor Model
MHCC97H cells were cultured in a single layer in-vitro. The culturing condition was RPMI1640 medium supplemented with 10% heat-inactivated fetal bovine serum, 1% penicillin-streptomycin double antibody under 37° C., 5% carbon dioxide. Digestion and passage treatment with trypsin-EDTA was done twice a week. When the cells are in the exponential growing phase, the cells were collected, counted and inoculated.
BALB/c nude mice, male. 6-8 weeks old, weighting 18-22 g.
0.2 mL of a cell suspension containing 5×10^6 MHCC97H was subcutaneously inoculated into the right back of each mouse. Drugs were administrated by group after the average tumor volume reached approximately 172 mm^3.
Aim of the assay: investigation of whether the tumor growth was inhibited, delayed or cured. The diameters of the tumor was measured twice a week using vernier calipers. The formula for calculating the tumor volume is V=0.5a×b2, and a and b represent the long and short diameters of the tumor respectively. The antitumor effect (TGI) of the compounds was evaluated by T-C (days) and T/C (%).

For data set [2] the following is noted: in words, prior art section; cited from earlier work.
The next data set relates to MHCC97H cell. As to conditions: read-out: MHCC97H cell IC50; prior art section; cited from earlier work.
A short description of data set [3]: t1/2 of liver particle metabolism, human. Format: in vitro ADME. The conditions noted are these: liver particle (liver microsomes). Background: Microsomes from liver hold many membrane-bound enzymes, among them those of drug oxidation.
Data set [4] is described as follows: t1/2 of liver particle metabolism, rat. Format: in vitro ADME. The conditions noted are these: liver particle (liver microsomes).
Data set [5] can be described thus: t1/2 of liver particle metabolism, mice. The data set is classed as in vitro ADME. As to conditions: mouse, liver particle (liver microsomes).

T1 sequence (P08581 956-1390 limits assumed): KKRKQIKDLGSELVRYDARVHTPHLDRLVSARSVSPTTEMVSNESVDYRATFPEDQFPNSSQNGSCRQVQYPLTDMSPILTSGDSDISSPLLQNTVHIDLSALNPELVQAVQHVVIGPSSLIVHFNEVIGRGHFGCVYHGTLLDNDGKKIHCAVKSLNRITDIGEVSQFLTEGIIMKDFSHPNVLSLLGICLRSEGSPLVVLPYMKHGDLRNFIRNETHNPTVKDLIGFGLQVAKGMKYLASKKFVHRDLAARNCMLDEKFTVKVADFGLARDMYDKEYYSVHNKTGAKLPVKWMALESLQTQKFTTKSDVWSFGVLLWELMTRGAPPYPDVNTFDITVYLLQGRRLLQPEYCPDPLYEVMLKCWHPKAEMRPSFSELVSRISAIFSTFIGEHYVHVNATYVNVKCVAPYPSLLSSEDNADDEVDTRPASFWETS

For the molecule `CN1CCC(COc2cnc(-c3cccc(Cn4cc(-c5cc(C#N)ccn5)ccc4=O)c3)nc2)CC1` [Embodiment 6], the figures for the IC50 on c-MET enzyme and in the data set with MHCC97H cells were 0.00437 µM and 0.0329 µM, respectively.

In the case of `Cc1cc(-c2ccc(=O)n(Cc3cccc(-c4ncc(OCC5CCN(C)CC5)cn4)c3)c2)sn1` [Embodiment 11], the IC50 (in general, the concentration at which inhibition is half-maximal) worked out at 0.005 µM on c-MET enzyme and 0.0938 µM in the data set on MHCC97H cells.

For the molecule `CN1CCC(COc2cnc(-c3cccc(Cn4cc(-c5cnn(C)c5)ccc4=O)c3)nc2)CC1` [Embodiment 10], the IC50 at c-MET enzyme worked out at 0.0695 µM; in the data set with MHCC97H cells it was 0.166 µM.

With `Cc1cc(-c2ccc(=O)n([C@H](C)c3cccc(-c4ncc(OCC5CCN(C)CC5)cn4)c3)c2)sn1` [Embodiment 3-2], the IC50 in the data set on MHCC97H cells worked out at 0.019 µM.

Regarding `Cc1cc(-c2cc(F)c(=O)n(C(C)c3cccc(-c4ncc(OCC5CCN(C)CC5)cn4)c3)c2)sn1` (centres unmarked) [Embodiment 2-2], the IC50 worked out at 0.00933 µM on c-MET enzyme and 0.0138 µM in the data set with MHCC97H cells.

With `Cc1cc(-c2cc(F)c(=O)n([C@H](C)c3cccc(-c4ncc(OCC5CCN(C)CC5)cn4)c3)c2)on1` (single isomer, unassigned) [Embodiment 8-2], on c-MET enzyme, the IC50 worked out at 0.00379 µM. In data set [1], the “Tumor volume (24th day)” value was 161 ± 6 mm^3; the T/C (usually the result in the treated group divided by that in the control group, in per cent) was found to be 7.8%; the TGI was found to be 100.6%.

Take `CN1CCC(COc2cnc(-c3cccc(Cn4nc(-c5cccc(C#N)c5)ccc4=O)c3)nc2)CC1` [Tepotinib, reference compound]: in data set [1], the “Tumor volume (24th day)” value is 255 ± 5 mm^3, the T/C turned out to be 12.4% and the TGI came to 95.6%. Besides, in data set [2], the “clearance rate in vivo” value is “high clearance rate in vivo” and the metabolic stability entry was “low metabolic stability”. The IC50 in the data set on MHCC97H cell is 0.0062 µM.

For the molecule `CC(c1cccc(-c2ncc(OCC3CCN(C)CC3)cn2)c1)n1cc(-c2cc(C#N)ccn2)cc(F)c1=O` (single isomer, unassigned) [Embodiment 1-2], in data set [1], the “Tumor volume (24th day)” value stood at 153 ± 12 mm^3, the T/C was determined as 7.4% and the TGI is 101.0%. In addition, in data set [3], the half-life – broadly, the time in which the quantity being followed falls by half – turned out to be 62.1 min. In data set [4], this molecule displayed a half-life of 36.5 min. This molecule also displayed a half-life in data set [5] of 49.1 min.

Consider `CN1CCC(COc2cnc(-c3cccc(Cn4cc(-c5cc(C#N)ccc5F)ccc4=O)c3)nc2)CC1` [Embodiment 4], for which the values for the IC50 on c-MET enzyme and with MHCC97H cells were 0.00616 µM and 0.0729 µM, respectively.

As for `Cc1cc(-c2ccc(=O)n(Cc3cccc(-c4ncc(OCC5CCN(C)CC5)cn4)c3)c2)on1` [Embodiment 12], in the data set with MHCC97H cells, the IC50 is 0.0514 µM.

As to `Cc1cc(-c2cc(F)c(=O)n(Cc3cccc(-c4ncc(OCC5CCN(C)CC5)cn4)c3)c2)sn1` [Embodiment 5], the IC50 was found to be 0.0029 µM at c-MET enzyme and 0.0588 µM in the data set on MHCC97H cells.

Regarding `CN1CCC(COc2cnc(-c3cccc(Cn4cc(-c5cc(C#N)ccn5)cc(F)c4=O)c3)nc2)CC1` [Embodiment 7], the IC50 on c-MET enzyme was 0.0155 µM; with MHCC97H cells, 0.0223 µM.
